Data on 20 molecules can be found in PubChem BioAssay AID192 (DTP/NCI, 2004).

Molecules are shown by their SMILES. Values joined by “and” are separate entries in the source; they are usually repeats but may differ in a detail not shown here. Identical values can stand only once. Inconclusive results and toxic doses are left out.

The test system of this assay is BDF1 mice, B16 melanoma ip, median survival T/C. As to the kind of experiment: NCI In Vivo Anticancer Drug Screen. Data for tumor model B16 Melanoma (intraperitoneal) in B6D2F1 (BDF1) mice. To be noted: endpoint: median survival time, higher = longer survival. The gist of the method:
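Tumor-bearing mice received test compound or vehicle. Survival or tumor size was then measured in both groups. The treated-group figure was divided by the control-group figure.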

Where [1] appears, read: dose: 1.56 mg/kg/injection, schedule: Q01DX009 (ip), vehicle: Klucel (hydroxypropylcellulose) (HPC).
The mark [2] stands for this setting: dose: 3.12 mg/kg/injection, schedule: Q01DX009 (ip), vehicle: Klucel (hydroxypropylcellulose) (HPC).
Setting [3] is: dose: 6.25 mg/kg/injection, schedule: Q01DX009 (ip), vehicle: saline with Tween-80.
[4] abbreviates: dose: 12.5 mg/kg/injection, schedule: Q01DX009 (ip), vehicle: Klucel (hydroxypropylcellulose) (HPC).
The mark [5] stands for this setting: dose: 100.0 mg/kg/injection, schedule: Q01DX009 (ip), vehicle: Klucel (hydroxypropylcellulose) (HPC).
Where [6] appears, read: dose: 200.0 mg/kg/injection, schedule: Q01DX009 (ip), vehicle: Klucel (hydroxypropylcellulose) (HPC).
[7] abbreviates: dose: 400.0 mg/kg/injection, schedule: Q01DX009 (ip), vehicle: Klucel (hydroxypropylcellulose) (HPC).
Setting [8] is: dose: 25.0 mg/kg/injection, schedule: Q01DX009 (ip), vehicle: Klucel (hydroxypropylcellulose) (HPC).
The mark [9] stands for this setting: dose: 50.0 mg/kg/injection, schedule: Q01DX009 (ip), vehicle: Klucel (hydroxypropylcellulose) (HPC).
Setting [10] is: dose: 50.0 mg/kg/injection, schedule: Q01DX009 (ip), vehicle: saline with Tween-80.
Setting [11] is: dose: 100.0 mg/kg/injection, schedule: Q01DX009 (ip), vehicle: saline with Tween-80.
[12] abbreviates: dose: 200.0 mg/kg/injection, schedule: Q01DX009 (ip), vehicle: saline with Tween-80.
[13] abbreviates: dose: 400.0 mg/kg/injection, schedule: Q01DX009 (ip), vehicle: saline with Tween-80.

For `CCN(CC)CCCN1c2ccccc2Sc2ccc(Cl)cc21`, the T/C (dose: 0.78 mg/kg/injection, schedule: Q01DX009 (ip), vehicle: saline) was 91 % of control; the T/C (dose: 1.56 mg/kg/injection, schedule: Q01DX009 (ip), vehicle: saline) was 104 % of control; the T/C (dose: 3.12 mg/kg/injection, schedule: Q01DX009 (ip), vehicle: saline) was 102 % of control; the T/C (dose: 6.25 mg/kg/injection, schedule: Q01DX009 (ip), vehicle: saline) is 93 % of control; the T/C (dose: 12.5 mg/kg/injection, schedule: Q01DX009 (ip), vehicle: saline) is 91 % of control.
Consider `CCCN(CCC)C(=O)c1cccnc1`, for which the T/C (dose: 100.0 mg/kg/injection, schedule: Q01DX009 (ip), vehicle: saline) is 102 % of control; the T/C (dose: 200.0 mg/kg/injection, schedule: Q01DX009 (ip), vehicle: saline) was 106 % of control; the T/C (dose: 400.0 mg/kg/injection, schedule: Q01DX009 (ip), vehicle: saline) is 113 % of control.
Consider `COC(=O)C1(C(=O)OC)CCCCC1=O`, for which the T/C is, setting by setting: (dose: 100.0 mg/kg/injection, schedule: Q04DX003 (ip), vehicle: Klucel (hydroxypropylcellulose) (HPC)) 93 % of control; (dose: 200.0 mg/kg/injection, schedule: Q04DX003 (ip), vehicle: Klucel (hydroxypropylcellulose) (HPC)) 94 % of control.
For `COc1cc(C=Nc2cccc(Br)c2)ccc1N(CCCl)CCCl`, the T/C was 113 % of control (dose: 0.8 mg/kg/injection, schedule: Q01DX009 (ip), vehicle: saline with Tween-80); 113 % of control under setting [1]; 115 % of control under setting [2]; 164 % of control under setting [3]; 163 % of control under setting [4]; 158 % of control (dose: 12.5 mg/kg/injection, schedule: Q01DX009 (ip), vehicle: saline with Tween-80).
Take `CCOC(=O)CN=NNc1[nH]ncc1C(N)=O`: the T/C (dose: 100.0 mg/kg/injection, schedule: Q04DX003 (ip), vehicle: saline with Tween-80) was 100 % of control; the T/C (dose: 200.0 mg/kg/injection, schedule: Q04DX003 (ip), vehicle: saline with Tween-80) was 104 % of control; the T/C (dose: 400.0 mg/kg/injection, schedule: Q04DX003 (ip), vehicle: saline with Tween-80) was 111 % of control.
Take `NC(=NCc1ccccc1)c1ccc(N=C(N)c2ccc(C(N)=Nc3ccc(C(N)=NCc4ccccc4)cc3)cc2)cc1`: the T/C was 97 % of control (dose: 2.5 mg/kg/injection, schedule: Q01DX009 (ip), vehicle: saline); 96 % of control (dose: 5.0 mg/kg/injection, schedule: Q01DX009 (ip), vehicle: saline); 92 % of control (dose: 10.0 mg/kg/injection, schedule: Q01DX009 (ip), vehicle: saline); 96 % of control (dose: 20.0 mg/kg/injection, schedule: Q01DX009 (ip), vehicle: saline).
Take `CCC[CH2][Sn]1([CH2]CCC)[O]OC(c2ccccc2)[O]1` (stereo not drawn): the T/C was 98 % of control (dose: 0.19 mg/kg/injection, schedule: Q01DX009 (ip), vehicle: Klucel (hydroxypropylcellulose) (HPC)); 87 % of control (dose: 0.38 mg/kg/injection, schedule: Q01DX009 (ip), vehicle: Klucel (hydroxypropylcellulose) (HPC)); 107 % of control (dose: 0.75 mg/kg/injection, schedule: Q01DX009 (ip), vehicle: Klucel (hydroxypropylcellulose) (HPC)); 102 % of control (dose: 1.5 mg/kg/injection, schedule: Q01DX009 (ip), vehicle: Klucel (hydroxypropylcellulose) (HPC)); 101 % of control (dose: 3.0 mg/kg/injection, schedule: Q01DX009 (ip), vehicle: Klucel (hydroxypropylcellulose) (HPC)); 102 % of control (dose: 3.0 mg/kg/injection, schedule: Q01DX009 (ip), vehicle: saline with Tween-80).
For `CC(O)(C(=O)O)c1ccccc1` (stereo not drawn) (tested in a mixture with another compound), the T/C is, setting by setting: under setting [5], 94 % of control; under setting [6], 105 % of control; under setting [7], 97 % of control.
For the molecule `CN(C)N=Nc1ccnc2c(Cl)cccc12`, the T/C is, setting by setting: (dose: 10.8 mg/kg/injection, schedule: Q01DX009 (ip), vehicle: DMSO) 101 % of control; (dose: 18.0 mg/kg/injection, schedule: Q01DX009 (ip), vehicle: DMSO) 103 % of control; (dose: 30.0 mg/kg/injection, schedule: Q01DX009 (ip), vehicle: DMSO) 101 % of control; (dose: 50.0 mg/kg/injection, schedule: Q01DX009 (ip), vehicle: DMSO) 99 % of control.
As to `COc1ccc(CN(CCN(C)C)c2ccccn2)cc1`, the T/C runs as follows: under setting [4], 100 % of control; under setting [8], 96 % of control; under setting [9], 93 % of control.
With `CCOC(=O)C(Cc1c[nH]c2cc(N)ccc12)(NC(C)=O)C(=O)OCC`, the T/C runs as follows: under setting [5], 89 % of control; under setting [6], 87 % of control.
As for `Cc1cccc(N2CCN(CCC#N)CC2)c1`, the T/C is 102 % of control (dose: 25.0 mg/kg/injection, schedule: Q01DX009 (ip), vehicle: saline with Tween-80) and 108 % of control under setting [10].
On to `Cc1cccc(NS(=O)(=O)c2ccccc2)c1C`, for which the T/C is 98 % of control under setting [10]; 96 % of control under setting [5]; 98 % of control under setting [11]; 97 % of control under setting [12]; 88 % of control under setting [7].
As for `ClC1CCC[N-]C1.ClC1CCC[N-]C1.[Cl][Pt+2]([Cl])([Cl])[Cl]` (stereo not drawn), the T/C by setting is: (dose: 0.78 mg/kg/injection, schedule: Q01DX009 (ip), vehicle: saline with Tween-80) 105 % of control; (dose: 1.56 mg/kg/injection, schedule: Q01DX009 (ip), vehicle: saline with Tween-80) 100 % of control; (dose: 3.13 mg/kg/injection, schedule: Q01DX009 (ip), vehicle: saline with Tween-80) 97 % of control; under setting [3], 106 % of control.
As for `O=C(Nc1cccc2ccccc12)Oc1ccccc1Cc1ccccc1`, the T/C (dose: 100.0 mg/kg/injection, schedule: Q04DX003 (ip), vehicle: saline) was 100 % of control; the T/C (dose: 200.0 mg/kg/injection, schedule: Q04DX003 (ip), vehicle: saline) was 106 % of control; the T/C (dose: 400.0 mg/kg/injection, schedule: Q04DX003 (ip), vehicle: saline) was 106 % of control.
On to `O=C(NO)c1ccncc1`, for which the T/C (dose: 25.0 mg/kg/injection, schedule: Q01DX009 (ip), vehicle: water) was 96 % of control; the T/C (dose: 50.0 mg/kg/injection, schedule: Q01DX009 (ip), vehicle: water) is 106 % of control and 111 % of control; the T/C (dose: 100.0 mg/kg/injection, schedule: Q01DX009 (ip), vehicle: water) was 93 % of control and 105 % of control; the T/C (dose: 200.0 mg/kg/injection, schedule: Q01DX009 (ip), vehicle: water) was 100 % of control; the T/C (dose: 300.0 mg/kg/injection, schedule: Q01DX009 (ip), vehicle: water) is 93 % of control; the T/C (dose: 400.0 mg/kg/injection, schedule: Q01DX009 (ip), vehicle: water) was 100 % of control. Moreover, the T/C was 105 % of control and 107 % of control (dose: 600.0 mg/kg/injection, schedule: Q01DX009 (ip), vehicle: water); 100 % of control (dose: 700.0 mg/kg/injection, schedule: Q01DX009 (ip), vehicle: water).
Regarding `CC1=C(c2cc3ccccc3c3ccccc23)CCCC1`, the T/C is 90 % of control under setting [11], 88 % of control under setting [12] and 91 % of control under setting [13].
Turning to `Cc1cccc(NC(=O)Nc2ccccc2Cl)c1C`, the T/C was 101 % of control under setting [8], 101 % of control under setting [9] and 101 % of control under setting [5].
As to `CNC(=O)Oc1ccc2ccccc2c1`, the T/C is, setting by setting: under setting [11], 100 % of control; under setting [12], 104 % of control; under setting [13], 93 % of control.
Take `CC(Cc1ccccc1)NC(=O)CCNNC(=O)c1ccncc1` (stereo not drawn): the T/C runs as follows: (dose: 0.39 mg/kg/injection, schedule: Q01DX009 (ip), vehicle: Klucel (hydroxypropylcellulose) (HPC)) 95 % of control; (dose: 0.78 mg/kg/injection, schedule: Q01DX009 (ip), vehicle: Klucel (hydroxypropylcellulose) (HPC)) 87 % of control; under setting [1], 90 % of control; under setting [2], 95 % of control; (dose: 6.25 mg/kg/injection, schedule: Q01DX009 (ip), vehicle: Klucel (hydroxypropylcellulose) (HPC)) 89 % of control; under setting [4], 91 % of control.
